Measured values: patent publication US5160526A, “Alkene stabilizers for 3-isothiazolone compounds” (priority 1991, dated 1992)
Read-outs that look alike come from different tables or passages of the source.

What was measured:
[1] = for 2-Methyl (%) / 5-Chloro (%): 2-propanol + 2% water, 55° C
Method: A solution of 5-chloro-2methyl-3-isothiazolone ("5-Chloro") and 2-methyl-3-isothiazolone ("2-Methyl") (3.11 g) was prepared in 2-propanol (12.1 g). This solution was distributed in 6 vials. Water (2%) and varying amounts of norbornene were then added. These were then put in a 55° C. oven and analyzed periodically.

[2] = type: physicochemical; conditions: for 2-Methyl (%) / 5-Chloro (%): 2-propanol, 55° C
Method: Varying amounts of DHP were added and the vials put in a 55° C. oven. Active ingredient analysis was done periodically.

[3] = Stabilization of 5-Chloro and 2-Methyl mixture by norbornene in 2-propanol, 55° C oven; type: physicochemical
Source text: This solution was distributed into 6 vials and varying amounts of norbornene added.

[4] = Stabilization of 5-Chloro and 2-Methyl mixture by norbornene in dipropylene glycol containing 0.5% water, 55° C oven; type: physicochemical; conditions: DPG (0.5% water)
Method: To 19.9 g of dipropylene glycol was added 0.1 g of water. […] This solution was distributed into 6 vials and varying amounts of norbornene were added.

[5] = type: physicochemical; conditions: DPG, 55° C
Method: This solution was distributed into 6 vials (3 g each) and varying amounts of cyclohexene were added. The vials were then heated at 55° C. and analyzed periodically.

[6] = type: physicochemical; conditions: kerosene/diethylene glycol butyl ether
Method: In a formulation comprised of 3 parts by weight of a mixture of 5-chloro-2-methyl-3-isothiazolone and 2-methyl-3-isothiazolone in a 3:1 ratio, 94 parts by weight of a mixture of kerosene […] and diethylene glycol butyl ether (20 parts by weight), 3 parts by weight norbornene stabilizer was added. The control had no norbornene.
Example 9 was repeated except using 1 part by weight norbornene. No loss of 5-chloro-2-methyl-3-isothiazolone was observed after eight weeks at 55° C.
Example 9 was repeated except using 1-tetradecene as stabilizer resulting in 86% 5-chloro-2-methyl-3-isothiazolone remaining after four weeks at 55° C. and complete loss by eight weeks.

## C1=CC2CCC1C2 [norbornene]
[1]
  stability realized (in words): Some stability is realized
  stabilization properties in presence of water (in words): overwhelms the stabilization properties

## C1=COCCC1 [DHP, 3,4-Dihydro-2H-pyran]
[2]
  stability imparted to isothiazolones (in words): imparts no stability

## Cn1sc(Cl)cc1=O [5-chloro-2-methyl-3-isothiazolone]
[3]
  stabilization with norbornene (in words): completely stabilized
[1]; 0% norbornene, 0 days
  2-Methyl (%) / 5-Chloro (%): 12.2%
[1]; 0% norbornene, 7 days
  2-Methyl (%) / 5-Chloro (%): 0.23%
[1]; 1.2% norbornene, 0 days
  2-Methyl (%) / 5-Chloro (%): 16.7%
[1]; 1.2% norbornene, 7 days
  2-Methyl (%) / 5-Chloro (%): 0.09%
[1]; 2.3% norbornene, 0 days
  2-Methyl (%) / 5-Chloro (%): 16.5%
[1]; 2.3% norbornene, 7 days
  2-Methyl (%) / 5-Chloro (%): 0.09%
[1]; 4.2% norbornene, 0 days
  2-Methyl (%) / 5-Chloro (%): 16.2%
[1]; 4.2% norbornene, 7 days
  2-Methyl (%) / 5-Chloro (%): 0.07%
[1]; 8.1% norbornene, 0 days
  2-Methyl (%) / 5-Chloro (%): 15.7%
[1]; 8.1% norbornene, 7 days
  2-Methyl (%) / 5-Chloro (%): < 0.1%
[1]; 14.1% norbornene, 0 days
  2-Methyl (%) / 5-Chloro (%): 14.7%
[1]; 14.1% norbornene, 7 days
  2-Methyl (%) / 5-Chloro (%): 13.5%
[1]; 14.1% norbornene, 21 days
  2-Methyl (%) / 5-Chloro (%): < 0.1%
[4]; 0% norbornene, 0 days
  2-Methyl (%) / 5-Chloro (%): 11.7%
[4]; 0% norbornene, 14 days
  2-Methyl (%) / 5-Chloro (%): 0.0%
[4]; 0% norbornene, 30 days
  2-Methyl (%) / 5-Chloro (%): 0%
[4]; 1.6% norbornene, 0 days
  2-Methyl (%) / 5-Chloro (%): 11.7%
[4]; 1.6% norbornene, 14 days
  2-Methyl (%) / 5-Chloro (%): 0%
[4]; 3.2% norbornene, 0 days
  2-Methyl (%) / 5-Chloro (%): 11.5%
[4]; 3.2% norbornene, 14 days
  2-Methyl (%) / 5-Chloro (%): 10.4%
[4]; 3.2% norbornene, 30 days
  2-Methyl (%) / 5-Chloro (%): 0.1%
[4]; 6.5% norbornene, 0 days
  2-Methyl (%) / 5-Chloro (%): 11.2%
[4]; 6.5% norbornene, 14 days
  2-Methyl (%) / 5-Chloro (%): 10.8%
[4]; 6.5% norbornene, 30 days
  2-Methyl (%) / 5-Chloro (%): 10.1%
[4]; 9.0% norbornene, 0 days
  2-Methyl (%) / 5-Chloro (%): 11.0%
[4]; 9.0% norbornene, 14 days
  2-Methyl (%) / 5-Chloro (%): 10.7%
[4]; 9.0% norbornene, 30 days
  2-Methyl (%) / 5-Chloro (%): 10.4%
[4]; 14.3% norbornene, 0 days
  2-Methyl (%) / 5-Chloro (%): 10.5%
[4]; 14.3% norbornene, 14 days
  2-Methyl (%) / 5-Chloro (%): 10.2%
[4]; 14.3% norbornene, 30 days
  2-Methyl (%) / 5-Chloro (%): 9.7%
[5]; 0% cyclohexene, 0 days
  2-Methyl (%) / 5-Chloro (%): 11.4%
[5]; 0% cyclohexene, 13 days
  2-Methyl (%) / 5-Chloro (%): < 0.1%
[5]; 3.2% cyclohexene, 0 days
  2-Methyl (%) / 5-Chloro (%): 10.1%
[5]; 3.2% cyclohexene, 13 days
  2-Methyl (%) / 5-Chloro (%): 0.19%
[5]; 6.8% cyclohexene, 0 days
  2-Methyl (%) / 5-Chloro (%): 10.9%
[5]; 6.8% cyclohexene, 13 days
  2-Methyl (%) / 5-Chloro (%): 0.10%
[5]; 9.1% cyclohexene, 0 days
  2-Methyl (%) / 5-Chloro (%): 10.6%
[5]; 9.1% cyclohexene, 13 days
  2-Methyl (%) / 5-Chloro (%): 8.6%
[5]; 9.1% cyclohexene, 30 days
  2-Methyl (%) / 5-Chloro (%): 0.0%
[5]; 11.8% cyclohexene, 0 days
  2-Methyl (%) / 5-Chloro (%): 10.5%
[5]; 11.8% cyclohexene, 13 days
  2-Methyl (%) / 5-Chloro (%): 7.9%
[5]; 11.8% cyclohexene, 30 days
  2-Methyl (%) / 5-Chloro (%): 0.0%
[5]; 16.7% cyclohexene, 0 days
  2-Methyl (%) / 5-Chloro (%): 10.2%
[5]; 16.7% cyclohexene, 13 days
  2-Methyl (%) / 5-Chloro (%): 9.0%
[5]; 16.7% cyclohexene, 30 days
  2-Methyl (%) / 5-Chloro (%): 0.0%
[2]; 0% DHP, 0 days
  2-Methyl (%) / 5-Chloro (%): 11.6%
[2]; 0% DHP, 12 days
  2-Methyl (%) / 5-Chloro (%): 0.4%
[2]; 3.5% DHP, 0 days
  2-Methyl (%) / 5-Chloro (%): 11.1%
[2]; 3.5% DHP, 12 days
  2-Methyl (%) / 5-Chloro (%): 0.1%
[2]; 6.3% DHP, 0 days
  2-Methyl (%) / 5-Chloro (%): 10.8%
[2]; 6.3% DHP, 12 days
  2-Methyl (%) / 5-Chloro (%): 0.1%
[2]; 11.8% DHP, 0 days
  2-Methyl (%) / 5-Chloro (%): 10.2%
[2]; 11.8% DHP, 12 days
  2-Methyl (%) / 5-Chloro (%): 0.6%
[2]; 16.7% DHP, 0 days
  2-Methyl (%) / 5-Chloro (%): 9.7%
[2]; 16.7% DHP, 12 days
  2-Methyl (%) / 5-Chloro (%): 0.5%
[2]; 21.1% DHP, 0 days
  2-Methyl (%) / 5-Chloro (%): 9.2%
[2]; 21.1% DHP, 12 days
  2-Methyl (%) / 5-Chloro (%): 0.4%
[6]; 1-tetradecene as stabilizer, by eight weeks at 55° C
  loss of 5-chloro-2-methyl-3-isothiazolone: complete loss
[6]; 1 part by weight norbornene, eight weeks at 55° C
  loss of 5-chloro-2-methyl-3-isothiazolone: No loss
[6]; control, no norbornene, eight weeks at 55° C
  5-chloro-2-methyl-3-isothiazolone left: no 5-chloro-2-methyl-3-isothiazolone left
[6]; 672 h
  5-chloro-2-methyl-3-isothiazolone remaining: 86%
[6]; 1344 h
  5-chloro-2-methyl-3-isothiazolone remaining: 100%
